Experimental data from patent publication US9624277B2, “Anticancer agent” (AMRITA THERAPEUTICS LIMITED, priority 2010, dated 2017).
No end group written: not given here.

B1: MPT-63 (protein, listed as Mycobacterium bovis)
chain: MKLTTMIKTAVAVVAMAAIATFAEPVALAAYPITGKLGSELTMTDTVGQVVLGWKVSDLKSSTAVIPGYPVAGQVWEATATVNAIRGSVTPAVSQFNARTADGINYRVLWQAAGPDTISGATIPQGEQSTGKIYFDVTGPSPTIVAMNNGMQDLLIWEP

Key:
[1] = tested on: SiHa cervix cancer cell line; conditions: SiHa cells, compared with MB30, MTT
Protocol: (§1) The viability of the cells was estimated by using MTT assay on the basis of formazan formed, which was detected spectrophotometrically by optical density at 570 nm at 24 h, 48 h and 72 h [Bar-mean±S.E.].
(§2) MTT [3-(4, 5-dimethylthiazol-2-yl)-2,5-diphenyl tetrazolium bromide] assay was carried out for measurement of the cytotoxicity of different anticancer peptides. The water soluble tetrazolium salt, MTT [3-(4,5-dimethylthiazol-2-yl)-2,5-diphenyl tetrazolium bromide] is metabolized to the water insoluble formazan by intact mitochondrial dehydrogenases. The formazan is then solubilized by adding 2-propanol+40 mM HCl for 4 h incubation. […] The viability of the cells was estimated on the basis of formazan formed, which was detected spectrophotometrically by optical density at 570 nm at 24 h, 48 h and 72 h. At every time point such as 24 h, 48 h and 72 h, 1×10^4 cells were seeded without the peptide in triplicate in each plate for a given treatment of peptide. This was used as control cytotoxicity levels to calculate the percent cell cytotoxicity of every peptide treatment. […] All the experiments were carried out in triplicates and repeated three times.

[2] = tested on: UM-UC-3 bladder cancer cell line; experiment: MTT cytotoxicity assay, UM-UC-3 bladder carcinoma cell line; assay type: cell-based, human; conditions: UM-UC-3 cells, 1.0 and 10 μM, 24 h
Source text: ATCC: UM-UC-3: Human cell line with epithelial-like characteristics established from a high grade invasive urinary bladder carcinoma of a patient. This is a hypertriploid human cell line and IFN non responsive. This cell line is tumorigenic in nature.

[3] = tested on: CaSki cervix cancer cell line; conditions: CaSki cells, compared with MB30, MTT
Protocol: as §1
All cell lines were grown under standard conditions in humidified 37° C. incubator in 5% CO2 as described earlier (Garg et al., 2009; Kanojia et al., 2010).
as §2

[4] = tested on: HCT 116 colorectal cancer cell line; assay type: cell-based, human; conditions: HCT 116 cells, compared with MB30, MTT
Source text: ATCC HCT 116: Human cell line with epithelial-like characteristics established from colorectal carcinoma from an adult patient. The cells are positive for keratin by immunoperoxidase staining. HCT 116 cells are positive for transforming growth factor beta 1 (TGF beta 1) and beta 2 (TGF beta 2) expression. This line has a mutation in codon 13 of the ras protooncogene, and can be used as a positive control for PCR assays of mutation in this codon.

MDA-MB-231 breast cancer = conditions: MDA-MB-231 cells (breast cancer), 24 h, MTT; MPT-63 at 1, 5 and 10 μM
U87 human glioblastoma = conditions: U87 cells (brain cancer), 24 h, MTT; MPT-63 at 1, 5 and 10 μM
HepG2 liver cancer = conditions: HepG2 cells (liver cancer), 24 h, MTT; MPT-63 at 1, 5 and 10 μM

| Molecule | cytotoxicity (in words) [1] | cytotoxicity levels (in words) [2] | cytotoxicity (in words) [3] | cytotoxicity (in words) [4] | cytotoxicity (in words) (MDA-MB-231 breast cancer) | cytotoxicity (in words) (U87 human glioblastoma) | cytotoxicity (in words) (HepG2 liver cancer) |
| --- | --- | --- | --- | --- | --- | --- | --- |
| TAGIKLTVPIEKFPVTTQTFVVG [TG23] | less cytotoxicity | higher cytotoxicity levels than the other peptide | less cytotoxicity | less cytotoxicity | – | – | – |
| GQVWEATATVNAIRGSVTPAVSQFNARTAD [MB30] | – | higher cytotoxicity levels than the other peptide | – | – | better cytotoxicity in comparison to the full length protein MPT-63 | better cytotoxicity in comparison to the full length protein MPT-63 | better cytotoxicity in comparison to the full length protein MPT-63 |
| NHFTLKCPKTALTEPPTLAY [TG20] | less cytotoxicity | – | less cytotoxicity | less cytotoxicity | – | – | – |
| B1 | – | – | – | – | shown cytotoxicity | shown cytotoxicity | shown cytotoxicity |
